Source: patent publication US9023350B2, “Synergistic pharmaceutical composition useful for inhibiting corneal and retinal neovascularization (angiogenesis), and in other organs, in a human being or animals” (Association Civil de Estudios Superiores, priority 2007, dated 2015)

Assays:
[1] = tested on: CT26 cells (colon adenocarcinoma); experiment: Oncological angiogenesis model, subcutaneous CT26 tumors; format: in vivo, Balb/c rats; conditions: day 31; single iv dose on day 7: Suramine 20 mg/Kg, Bevacizumab 5 mg/Kg, suramab = Suramine 20 mg/Kg + Bevacizumab 5 mg/Kg
Procedure: 5×10^5 CT26 cells (colon adenocarcinoma) were inoculated subcutaneously, in the dorsal-lateral region of Balb/c rats. On the 7th day of inoculation 4 groups of animals were formed that received different treatments via iv (in the tail vein).
• a. […] Control group: (n=7) PS 100 μl under slow infusion.
The tumors were measured three times per week. The following formula was used to calculate the tumor volume: […]. The animals having tumors volumes greater or equal to 8000 mm3 were sacrificed.
Survival was considered till day 35 post tumor inoculation.

corneal neovasculization = experiment: Corneal neovasculization model (NaOH alkali burn of the cornea), neovasculization index; format: in vivo; conditions: rabbit, during 35 days of evaluation, single iv dose
Procedure: After anaesthetizing a Newzealender breed white rabbit of 3 kg. with a midazolam and ketamine hydrochloride with an intramuscular injection, installation of topical proparacaine was performed (Anestalcon, Alcon, Argentina) in the eye and a blepharostat was place on the right eye. During 20 seconds 7 mm diameter dicks of Whatman filter paper were soaked in a 1N NaOH solution. The paper disk was placed on the central part of the cornea with a pincer leaving it there for 2 minutes. Immediately afterwards the injured zone was washed with 15 ml saline physiological solution (CINa, 0.9%) during one minute. The same process was performed on 12 rabbits of the same color, breed and weight.
Formation of neovessels were quantified with a value of 0 to 4 to each quadrant according to the centripetal growth of the longest vessel (in 1 mm increases i.e, 0=0 mm; 1=equal or less than 1 mm; 2=more than 1 and up to 2 mm; 3=more than 2 and up to 3 mm; 4=more than 3 mm). The sum of the four quadrants provided the neovasculization index (INV) for that eye.
24 hs after the lesion was caused the first clinical examination was performed and was then continued every three days. This was carried out using an operator microscope or a surgical magnifying glass and photographs were taken with a digital camera Nikon Coolpix 5700. The INV register was performed on days 9, 15, 21 and 35 on all the animals. […]

Molecule	tumor volume compared to the control group (in words) [1]	effect on corneal neovasculization (in words) (corneal neovasculization)
Cc1ccc(C(=O)Nc2ccc(S(=O)(=O)O)c3cc(S(=O)(=O)O)cc(S(=O)(=O)O)c23)cc1NC(=O)c1cccc(NC(=O)Nc2cccc(C(=O)Nc3cc(C(=O)Nc4ccc(S(=O)(=O)O)c5cc(S(=O)(=O)O)cc(S(=O)(=O)O)c45)ccc3C)c2)c1 [Suramine]	reduction of tumor volume compared to the control group	inhibiting effect on neovasculization
Bevacizumab: monoclonal antibody, humanized and recombinant, that binds to VEGF-A	reduction of tumor volume compared to the control group	inhibiting effect on neovasculization
